Data on ten substances can be found in US6531446B1, “Peptides having biological activity” (Korea Advanced Institute of Science and Technology, priority 1998, dated 2003).

Common to all, as to assay type: cell-based
For one assay, the system named is Bacillus subtilis. How it is done:
(§1) By using the peptides as in Example 1, the minimal inhibitory concentration of the peptides were determined against a variety of microorganisms. Bacteria and fungi were incubated overnight in Mller-Hinton and Saboraud media, respectively, at 37 and 30° C., respectively, and were inoculated in media for 2 hours to a midlogarithmic phase. After diluting the bacteria and fungi to 10^4-10^5 per 1 ml, they were inoculated into a 96-well plate containing serially diluted peptides and incubated for additional 18 hours. The minimal inhibitory concentration was determined at a concentration that inhibits the growth of the microorganisms by measuring the absorbance.

A further assay concerns Candida albicans. How it is done:
as §1

In another assay the test system is Cryptococcus neoformans. Here is the method:
as §1

A further assay relates to Escherichia coli. How it is done:
as §1

For another assay, the system named is Saccharomyces cerevisiae. Here is the method: as §1
Another assay concerns Salmonella typhimurium. Here is the method:
as §1

The next assay deals with Serratia sp. How it is done: as §1
The next assay concerns Staphylococcus aureus. How it is done: as §1
Another assay relates to Streptococcus mutans. Here is the method: as §1
Another assay deals with Streptococcus pneumoniae. How it is done:
as §1

Another assay concerns Psudomonas putida. The assay is described as follows: Minimal inhibitory concentration, 96-well broth dilution. Particulars: Gram-negative; second part of Table 2. Here is the method: as §1
In general terms: In broth dilution the organism is exposed to a series of concentrations in liquid medium.

Assay [1] concerns a variety of microorganisms. The assay is described as follows: Estimation of antimicrobial activity, overall statement in words. The following applies: result in words. Here is the method:
as §1

Setting [2] is: Gram-positive, second part of Table 2.
The mark [3] stands for this setting: Gram-negative, second part of Table 2.

Read-outs that look alike come from different tables or passages of the source. No end group written: not given here. Bounds are passed on as bounds.

Consider “Arg Ala Gly Leu Gln Phe Pro Val Gly Arg Val His Arg Leu Leu Arg Lys-NH2 (RAGLQFPVGRVHRLLRK-NH2) [Seq No. 16]”, for which the “Minimal Inhibitory Concentrations” value amounted to 1 μg/m in the assay on Bacillus subtilis (setting [2]); 2 μg/m in the assay with Candida albicans (Fungi, second part of Table 2); 1 μg/m in the assay with Cryptococcus neoformans (Fungi, second part of Table 2); 2 μg/m in the assay on Escherichia coli (setting [3]); 2 μg/m with Saccharomyces cerevisiae (Fungi, second part of Table 2); 2 μg/m with Salmonella typhimurium (setting [3]). The “Minimal Inhibitory Concentrations” value in the assay on Serratia sp. (setting [3]) is 1 μg/m; in the assay on Staphylococcus aureus (setting [2]) it was 1 μg/m; in the assay with Streptococcus mutans (setting [2]), 0.5 μg/m; in the assay with Streptococcus pneumoniae (setting [2]), 1 μg/m; with Psudomonas putida, 2 μg/m.

With PVGRVHRLLRK [Seq No. 7], the “Minimal Inhibitory Concentrations” value was found to be 25 µg/mL in the assay with Bacillus subtilis (18 h); 50 µg/mL in the assay with Candida albicans (18 h); 50 µg/mL in the assay on Cryptococcus neoformans (18 h); 25 µg/mL in the assay with Escherichia coli (18 h); 50 µg/mL with Saccharomyces cerevisiae (18 h); 50 µg/mL in the assay on Salmonella typhimurium (murium, 18 h). Moreover, the “Minimal Inhibitory Concentrations” value in the assay with Serratia sp. (18 h) was found to be 25 µg/mL; in the assay with Staphylococcus aureus (18 h) it was 50 µg/mL; with Streptococcus mutans (18 h) it was 25 µg/mL; in the assay with Streptococcus pneumoniae (18 h), 50 µg/mL. The antimicrobial activity result in assay [1] is “strong antimicrobial activity”.

On to RAGLQFPVGRLLR [Buf(5-13)[RLLR]], for which the “Minimal Inhibitory Concentrations” value in the assay with Bacillus subtilis (setting [2]) was found to be 32 μg/m; in the assay on Candida albicans (Fungi, second part of Table 2) it was 32 μg/m; with Cryptococcus neoformans (Fungi, second part of Table 2), 32 μg/m; with Escherichia coli (setting [3]), 32 μg/m; with Saccharomyces cerevisiae (Fungi, second part of Table 2) it was 32 μg/m; in the assay with Salmonella typhimurium (setting [3]) it was 16 μg/m. Further, the “Minimal Inhibitory Concentrations” value in the assay with Serratia sp. (setting [3]) is recorded as 32 μg/m; in the assay on Staphylococcus aureus (setting [2]), 64 μg/m; in the assay with Streptococcus mutans (setting [2]), 16 μg/m; in the assay with Streptococcus pneumoniae (setting [2]), 32 μg/m; in the assay with Psudomonas putida, 32 μg/m.

Regarding RAGLQFPVGRLLRRLLR [Buf(5-13)[RLLR]2], the “Minimal Inhibitory Concentrations” value is 4 μg/m in the assay with Bacillus subtilis (setting [2]); 4 μg/m in the assay on Candida albicans (Fungi, second part of Table 2); 4 μg/m in the assay on Cryptococcus neoformans (Fungi, second part of Table 2); 8 μg/m in the assay with Escherichia coli (setting [3]); 8 μg/m with Saccharomyces cerevisiae (Fungi, second part of Table 2); 4 μg/m in the assay with Salmonella typhimurium (setting [3]). Further, the “Minimal Inhibitory Concentrations” value in the assay with Serratia sp. (setting [3]) is 8 μg/m; with Staphylococcus aureus (setting [2]), 8 μg/m; in the assay on Streptococcus mutans (setting [2]) it was 16 μg/m; in the assay on Streptococcus pneumoniae (setting [2]), 8 μg/m; in the assay with Psudomonas putida it was 16 μg/m.

For RAGLQFPVGRLLRRLLRRLLR [Seq No. 15], the “Minimal Inhibitory Concentrations” value with Bacillus subtilis (setting [2]) worked out at 1 μg/m; in the assay with Candida albicans (Fungi, second part of Table 2) it was 2 μg/m; in the assay on Cryptococcus neoformans (Fungi, second part of Table 2), 1 μg/m; with Escherichia coli (setting [3]) it was 1 μg/m; in the assay with Saccharomyces cerevisiae (Fungi, second part of Table 2), 4 μg/m; with Salmonella typhimurium (setting [3]), 1 μg/m. For the same substance, the “Minimal Inhibitory Concentrations” value in the assay with Serratia sp. (setting [3]) is recorded as 1 μg/m; in the assay with Staphylococcus aureus (setting [2]), 1 μg/m; in the assay with Streptococcus mutans (setting [2]), 0.5 μg/m; in the assay on Streptococcus pneumoniae (setting [2]), 1 μg/m; in the assay with Psudomonas putida it was 1 μg/m. Also, the antimicrobial activity entry in [1] is listed as “especially potent antimicrobial activity”.

With RKGLQKLVGRVHRLLRK [Seq No. 12], the “Minimal Inhibitory Concentrations” value in the assay with Bacillus subtilis (setting [2]) is recorded as 18 μg/m; in the assay with Candida albicans (Fungi, second part of Table 2), 16 μg/m; in the assay with Cryptococcus neoformans (Fungi, second part of Table 2) it was 8 μg/m; in the assay with Escherichia coli (setting [3]), 18 μg/m; with Saccharomyces cerevisiae (Fungi, second part of Table 2), 4 μg/m; with Salmonella typhimurium (setting [3]), 18 μg/m. Besides, the “Minimal Inhibitory Concentrations” value stood at 4 μg/m in the assay on Serratia sp. (setting [3]); 18 μg/m with Staphylococcus aureus (setting [2]); 36 μg/m in the assay with Streptococcus mutans (setting [2]); 18 μg/m in the assay with Streptococcus pneumoniae (setting [2]); 36 μg/m in the assay on Psudomonas putida.

Consider RLLRRLLRRLLR [(RLLR)3], for which the “Minimal Inhibitory Concentrations” value with Bacillus subtilis (setting [2]) worked out at 16 μg/m; in the assay with Candida albicans (Fungi, second part of Table 2), 32 μg/m; in the assay with Cryptococcus neoformans (Fungi, second part of Table 2) it was 32 μg/m; in the assay on Escherichia coli (setting [3]), 32 μg/m; with Saccharomyces cerevisiae (Fungi, second part of Table 2) it was 32 μg/m; in the assay with Salmonella typhimurium (setting [3]), 16 μg/m. For the same substance, the “Minimal Inhibitory Concentrations” value in the assay on Serratia sp. (setting [3]), with Staphylococcus aureus (setting [2]), in the assay with Streptococcus mutans (setting [2]), in the assay with Streptococcus pneumoniae (setting [2]) and in the assay with Psudomonas putida was 16 μg/m each time.

Take RLLRRLLRRLLRRLLR [(RLLR)4]: the “Minimal Inhibitory Concentrations” value worked out at 2 μg/m in the assay on Bacillus subtilis (setting [2]); 8 μg/m in the assay on Candida albicans (Fungi, second part of Table 2); 8 μg/m in the assay on Cryptococcus neoformans (Fungi, second part of Table 2); 2 μg/m in the assay on Escherichia coli (setting [3]); 8 μg/m in the assay on Saccharomyces cerevisiae (Fungi, second part of Table 2); 2 μg/m with Salmonella typhimurium (setting [3]). Further, the “Minimal Inhibitory Concentrations” value in the assay with Serratia sp. (setting [3]) was determined as 1 μg/m; in the assay on Staphylococcus aureus (setting [2]), 1 μg/m; with Streptococcus mutans (setting [2]) it was 2 μg/m; in the assay with Streptococcus pneumoniae (setting [2]) it was 2 μg/m; in the assay with Psudomonas putida it was 2 μg/m. The antimicrobial activity result in assay [1] is listed as “strong antimicrobial activities”.

Regarding RLLRRLLRRLLRRLLRRLLR [Seq No. 13], the “Minimal Inhibitory Concentrations” value worked out at 2 μg/m in the assay on Bacillus subtilis (setting [2]); 8 μg/m in the assay with Candida albicans (Fungi, second part of Table 2); 8 μg/m with Cryptococcus neoformans (Fungi, second part of Table 2); 2 μg/m in the assay with Escherichia coli (setting [3]); 8 μg/m in the assay with Saccharomyces cerevisiae (Fungi, second part of Table 2); 2 μg/m in the assay with Salmonella typhimurium (setting [3]). Further, the “Minimal Inhibitory Concentrations” value with Serratia sp. (setting [3]) is 1 μg/m; with Staphylococcus aureus (setting [2]), 1 μg/m; with Streptococcus mutans (setting [2]), 2 μg/m; in the assay on Streptococcus pneumoniae (setting [2]), 2 μg/m; in the assay with Psudomonas putida it was 2 μg/m. Besides, the antimicrobial activity result in assay [1] is reported as “strong antimicrobial activities”.

As to RVHRLLRRVHRLLRRVHRLLR [Seq No. 14], the “Minimal Inhibitory Concentrations” value with Bacillus subtilis (setting [2]) is 6 μg/m; in the assay with Candida albicans (Fungi, second part of Table 2) it was greater than 200 μg/m; with Cryptococcus neoformans (Fungi, second part of Table 2), 100 μg/m; in the assay on Escherichia coli (setting [3]) it was 100 μg/m; in the assay on Saccharomyces cerevisiae (Fungi, second part of Table 2), greater than 200 μg/m; in the assay on Salmonella typhimurium (setting [3]), 50 μg/m. For the same substance, the “Minimal Inhibitory Concentrations” value with Serratia sp. (setting [3]) worked out at 3 μg/m; in the assay on Staphylococcus aureus (setting [2]), 50 μg/m; in the assay with Streptococcus mutans (setting [2]) it was 25 μg/m; in the assay on Streptococcus pneumoniae (setting [2]), 100 μg/m; in the assay with Psudomonas putida, 50 μg/m.
